Experimental data published in the supplement of paper PMC10883282.

Key:
Experiment in all cases: relative viability vs DMSO control (72 h) (fraction); higher = more viable cells
SK-ES-1 = tested on: SK-ES-1
Outline: (§1)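 Relative viability was measured with ATPLite and expressed as percent growth, averaged across up to triplicate wells. Sarcoma cell lines had been seeded in 384-well plates to reach 80–90% confluence, dosed after 24 h, and incubated 72 h at 37 °C, 5% CO2. All data were rescaled on a scale where 1 is full and 0 is none.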

SW684 = tested on: SW684
Outline: as §1

HS729 = tested on: HS729
Outline: as §1

VA-ES-BJ = tested on: VA-ES-BJ
Outline: as §1

KHOS-NP = tested on: KHOS-NP
Outline: as §1

A204 = tested on: A204
Outline: as §1

SW872 = tested on: SW872
Outline: as §1

SK-LMS-1 = tested on: SK-LMS-1
Outline: as §1

SYO-1 = tested on: SYO-1
Outline: as §1

MES-SA = tested on: MES-SA
Outline: as §1

RD = tested on: RD
Outline: as §1

G401 = tested on: G401
Outline: as §1

CNC(=O)c1ccccc1Sc1ccc2c(/C=C/c3ccccn3)n[nH]c2c1 [Axitinib]
Details | relative viability
A204, 0.00017 µM | 1.04
A204, 0.00051 µM | 1.07
A204, 0.00152 µM | 1.03
A204, 0.00457 µM | 0.942
A204, 0.01372 µM | 0.77
A204, 0.04115 µM | 0.484
A204, 0.1235 µM | 0.405
A204, 0.3704 µM | 0.359
A204, 1.111 µM | 0.289
A204, 3.333 µM | 0.159
A204, 10 µM | 0.0338
G401, 0.00017 µM | 1.04
G401, 0.00051 µM | 1.04
G401, 0.00152 µM | 1.02
G401, 0.00457 µM | 1.01
G401, 0.01372 µM | 0.979
G401, 0.04115 µM | 0.963
G401, 0.1235 µM | 0.942
G401, 0.3704 µM | 0.854
G401, 1.111 µM | 0.806
G401, 3.333 µM | 0.456
G401, 10 µM | 0.0633
HS729, 0.00017 µM | 1.09
HS729, 0.00051 µM | 1.03
HS729, 0.00152 µM | 1.04
HS729, 0.00457 µM | 0.987
HS729, 0.01372 µM | 0.909
HS729, 0.04115 µM | 0.916
HS729, 0.1235 µM | 0.929
HS729, 0.3704 µM | 0.861
HS729, 1.111 µM | 0.698
HS729, 3.333 µM | 0.271
HS729, 10 µM | 0.111
KHOS-NP, 0.00017 µM | 1.08
KHOS-NP, 0.00051 µM | 1.12
KHOS-NP, 0.00152 µM | 1.12
KHOS-NP, 0.00457 µM | 1.12
KHOS-NP, 0.01372 µM | 1.12
KHOS-NP, 0.04115 µM | 1.106
KHOS-NP, 0.1235 µM | 1.07
KHOS-NP, 0.3704 µM | 1.01
KHOS-NP, 1.111 µM | 0.986
KHOS-NP, 3.333 µM | 0.827
KHOS-NP, 10 µM | 0.405
MES-SA, 0.00017 µM | 0.995
MES-SA, 0.00051 µM | 0.9681
MES-SA, 0.00152 µM | 0.978
MES-SA, 0.00457 µM | 0.977
MES-SA, 0.01372 µM | 0.967
MES-SA, 0.04115 µM | 0.949
MES-SA, 0.1235 µM | 0.951
MES-SA, 0.3704 µM | 0.785
MES-SA, 1.111 µM | 0.825
MES-SA, 3.333 µM | 0.257
MES-SA, 10 µM | 0.056
RD, 0.00017 µM | 0.981
RD, 0.00051 µM | 0.977
RD, 0.00152 µM | 1
RD, 0.00457 µM | 1.01
RD, 0.01372 µM | 1.01
RD, 0.04115 µM | 0.98
RD, 0.1235 µM | 0.984
RD, 0.3704 µM | 0.892
RD, 1.111 µM | 0.874
RD, 3.333 µM | 0.465
RD, 10 µM | 0.183
SK-ES-1, 0.00017 µM | 0.9896
SK-ES-1, 0.00051 µM | 1.06
SK-ES-1, 0.00152 µM | 1.03
SK-ES-1, 0.00457 µM | 1.02
SK-ES-1, 0.01372 µM | 1.01
SK-ES-1, 0.04115 µM | 0.969
SK-ES-1, 0.1235 µM | 0.943
SK-ES-1, 0.3704 µM | 0.829
SK-ES-1, 1.111 µM | 0.837
SK-ES-1, 3.333 µM | 0.499
SK-ES-1, 10 µM | 0.0154
SK-LMS-1, 0.00017 µM | 1.11
SK-LMS-1, 0.00051 µM | 1.14
SK-LMS-1, 0.00152 µM | 1.12
SK-LMS-1, 0.00457 µM | 1.09
SK-LMS-1, 0.01372 µM | 1.1
SK-LMS-1, 0.04115 µM | 1.09
SK-LMS-1, 0.1235 µM | 1.17
SK-LMS-1, 0.3704 µM | 1.17
SK-LMS-1, 1.111 µM | 1.18
SK-LMS-1, 3.333 µM | 1.13
SK-LMS-1, 10 µM | 0.55
SW684, 0.00017 µM | 1.17
SW684, 0.00051 µM | 1.17
SW684, 0.00152 µM | 1.21
SW684, 0.00457 µM | 1.188
SW684, 0.01372 µM | 1.19
SW684, 0.04115 µM | 1.15
SW684, 0.1235 µM | 1.14
SW684, 0.3704 µM | 1.12
SW684, 1.111 µM | 1.14
SW684, 3.333 µM | 0.978
SW684, 10 µM | 0.493
SW872, 0.00017 µM | 1.08
SW872, 0.00051 µM | 1.04
SW872, 0.00152 µM | 1.06
SW872, 0.00457 µM | 1.08
SW872, 0.01372 µM | 1.05
SW872, 0.04115 µM | 1.03
SW872, 0.1235 µM | 0.981
SW872, 0.3704 µM | 0.902
SW872, 1.111 µM | 0.779
SW872, 3.333 µM | 0.511
SW872, 10 µM | 0.213
SYO-1, 0.00017 µM | 1
SYO-1, 0.00051 µM | 0.973
SYO-1, 0.00152 µM | 0.9673
SYO-1, 0.00457 µM | 0.913
SYO-1, 0.01372 µM | 0.841
SYO-1, 0.04115 µM | 0.742
SYO-1, 0.1235 µM | 0.662
SYO-1, 0.3704 µM | 0.485
SYO-1, 1.111 µM | 0.422
SYO-1, 3.333 µM | 0.141
SYO-1, 10 µM | 0.0669
VA-ES-BJ, 0.00017 µM | 1.11
VA-ES-BJ, 0.00051 µM | 1.097
VA-ES-BJ, 0.00152 µM | 1.11
VA-ES-BJ, 0.00457 µM | 1.12
VA-ES-BJ, 0.01372 µM | 1.09
VA-ES-BJ, 0.04115 µM | 1.08
VA-ES-BJ, 0.1235 µM | 1.05
VA-ES-BJ, 0.3704 µM | 0.9867
VA-ES-BJ, 1.111 µM | 0.977
VA-ES-BJ, 3.333 µM | 0.61
VA-ES-BJ, 10 µM | 0.263
